# In patent publication US20040229791A1, “Compositions and methods of modulating TGF-beta activity by fatty acids” (priority 2002, published 2004):
# Columns and labels:
# Type in all cases: binding
# TGF-β1-α2M* complex = target: T1, TGF-β1-α2M* complex (Homo sapiens, UniProt P01023); assay: Inhibition of 125I-TGF-β1 and α2M* complex formation (5% non-denaturing PAGE, autoradiography); details: ~1 nM 125I-TGF-β1, 10 μg α2M* in 0.05 ml, 30 min room temperature, non-denaturing PAGE; read-out: IC50 for inhibiting complex formation between TGF-β1 and α2M*
# T1 construct: was purified from pooled citrate-treate human plasma; from tissue; host or cells: pooled citrate-treated human plasma
# T1 sequence (P01023 24-1474): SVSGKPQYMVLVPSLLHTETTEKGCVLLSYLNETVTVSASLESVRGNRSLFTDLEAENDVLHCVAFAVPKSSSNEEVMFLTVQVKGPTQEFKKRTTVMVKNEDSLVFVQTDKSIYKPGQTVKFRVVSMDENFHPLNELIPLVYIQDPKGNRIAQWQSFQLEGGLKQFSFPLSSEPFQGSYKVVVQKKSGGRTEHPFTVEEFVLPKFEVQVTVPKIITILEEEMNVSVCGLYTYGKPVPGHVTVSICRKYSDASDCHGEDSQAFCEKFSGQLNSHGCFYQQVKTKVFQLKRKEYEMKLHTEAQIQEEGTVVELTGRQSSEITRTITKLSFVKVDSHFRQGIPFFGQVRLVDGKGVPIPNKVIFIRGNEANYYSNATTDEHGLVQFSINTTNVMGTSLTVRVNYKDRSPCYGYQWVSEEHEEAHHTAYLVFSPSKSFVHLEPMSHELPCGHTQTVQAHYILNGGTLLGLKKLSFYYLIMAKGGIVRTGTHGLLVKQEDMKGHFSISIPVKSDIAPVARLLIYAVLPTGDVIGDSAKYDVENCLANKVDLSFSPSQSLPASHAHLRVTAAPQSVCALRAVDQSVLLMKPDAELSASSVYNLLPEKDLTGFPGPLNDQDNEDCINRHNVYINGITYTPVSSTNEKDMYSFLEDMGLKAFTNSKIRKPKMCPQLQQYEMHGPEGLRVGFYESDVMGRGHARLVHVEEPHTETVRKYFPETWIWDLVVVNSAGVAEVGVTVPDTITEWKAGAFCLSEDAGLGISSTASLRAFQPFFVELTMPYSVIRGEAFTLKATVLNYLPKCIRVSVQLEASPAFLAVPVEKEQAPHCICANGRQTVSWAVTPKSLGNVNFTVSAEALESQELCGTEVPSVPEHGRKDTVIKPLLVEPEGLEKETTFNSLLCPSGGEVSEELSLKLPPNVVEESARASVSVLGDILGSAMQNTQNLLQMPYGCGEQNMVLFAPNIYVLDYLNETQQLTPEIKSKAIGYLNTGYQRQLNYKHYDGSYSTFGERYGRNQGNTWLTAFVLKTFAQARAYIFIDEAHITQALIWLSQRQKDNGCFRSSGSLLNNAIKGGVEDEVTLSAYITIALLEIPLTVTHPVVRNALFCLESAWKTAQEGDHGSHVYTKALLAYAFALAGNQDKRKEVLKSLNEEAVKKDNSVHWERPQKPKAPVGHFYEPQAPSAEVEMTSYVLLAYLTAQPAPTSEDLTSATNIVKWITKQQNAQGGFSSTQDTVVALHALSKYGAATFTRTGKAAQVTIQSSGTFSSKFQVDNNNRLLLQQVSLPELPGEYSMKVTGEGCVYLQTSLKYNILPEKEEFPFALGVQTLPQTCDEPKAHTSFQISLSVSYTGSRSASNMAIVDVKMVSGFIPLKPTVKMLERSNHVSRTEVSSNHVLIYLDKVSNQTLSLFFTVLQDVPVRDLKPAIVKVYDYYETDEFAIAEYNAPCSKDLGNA
# Description: Saturated and unsaturated fatty acids are present in plasma and tissues (25,26). The effects of various concentrations of saturated fatty acids on the formation of complexes between ^125I-TGF ? β1 and ? 2M* were examined. ^125I-TGF- ? 1 (1 nM) was incubated μg/ml) in the presence of various concentrations of n-caprylic acid ([…]), lauric acid (12 carbon atoms), myristic acid (14 carbon atoms), palmitic acid (16 carbon atoms) and stearic acid (18 carbon atoms). After 30 min at room temperature, the reaction mixture was analyzed by 5% non-denaturing PAGE and autoradiography, a standard method form determining complex formation between TGF-β and α2M* (12). […] At 100 μM, it inhibited 20% of the complex formation between TGF ? β1 and α2M*. Esterification consistently abolished the inhibitory activities of the fatty acids.
# Complex formation of ^125I-TGF-β and ? 2M*—The reaction mixture contained 10 μg of . α2M*, ˜1 nM of ^125I-TGF- ? 1, ^125I-TGF ? β2 or ^125I-TGF ? acids (dissolved in 100% ethanol) in 0.05 ml of 50 mM HEPES-NaOH buffer, pH 7.4. The final concentration of ethanol in the reaction mixture was 0.5%. These fatty acids and fatty acid derivatives were soluble under the experimental conditions. After 30 min at room temperature, the complex formation of ^125I-TGF- ? and. α2M* was determined by 5% non-denaturing polyacrylamide gel electrophoresis (PAGE) or by 7.5% SDS-PAGE following cross-linking by 0.6 mM DSS. After electrophoresis, the gel was stained with Coomassie blue and analyzed by autoradiography. The ^125I-TGF- ? - ? 2M* complex which co-migrated with free ? 2M* was quantified using a PhosphoImager (Fuji).
# TGF-β2-α2M* complex = target: T2, TGF-β2-α2M* complex (Homo sapiens, UniProt P01023); assay: Inhibition of 125I-TGF-β2 and α2M* complex formation (5% non-denaturing PAGE); details: 30% inhibition
# T2 construct: was purified from pooled citrate-treate human plasma; from tissue; host or cells: pooled citrate-treated human plasma
# T2 sequence (P01023 24-1474): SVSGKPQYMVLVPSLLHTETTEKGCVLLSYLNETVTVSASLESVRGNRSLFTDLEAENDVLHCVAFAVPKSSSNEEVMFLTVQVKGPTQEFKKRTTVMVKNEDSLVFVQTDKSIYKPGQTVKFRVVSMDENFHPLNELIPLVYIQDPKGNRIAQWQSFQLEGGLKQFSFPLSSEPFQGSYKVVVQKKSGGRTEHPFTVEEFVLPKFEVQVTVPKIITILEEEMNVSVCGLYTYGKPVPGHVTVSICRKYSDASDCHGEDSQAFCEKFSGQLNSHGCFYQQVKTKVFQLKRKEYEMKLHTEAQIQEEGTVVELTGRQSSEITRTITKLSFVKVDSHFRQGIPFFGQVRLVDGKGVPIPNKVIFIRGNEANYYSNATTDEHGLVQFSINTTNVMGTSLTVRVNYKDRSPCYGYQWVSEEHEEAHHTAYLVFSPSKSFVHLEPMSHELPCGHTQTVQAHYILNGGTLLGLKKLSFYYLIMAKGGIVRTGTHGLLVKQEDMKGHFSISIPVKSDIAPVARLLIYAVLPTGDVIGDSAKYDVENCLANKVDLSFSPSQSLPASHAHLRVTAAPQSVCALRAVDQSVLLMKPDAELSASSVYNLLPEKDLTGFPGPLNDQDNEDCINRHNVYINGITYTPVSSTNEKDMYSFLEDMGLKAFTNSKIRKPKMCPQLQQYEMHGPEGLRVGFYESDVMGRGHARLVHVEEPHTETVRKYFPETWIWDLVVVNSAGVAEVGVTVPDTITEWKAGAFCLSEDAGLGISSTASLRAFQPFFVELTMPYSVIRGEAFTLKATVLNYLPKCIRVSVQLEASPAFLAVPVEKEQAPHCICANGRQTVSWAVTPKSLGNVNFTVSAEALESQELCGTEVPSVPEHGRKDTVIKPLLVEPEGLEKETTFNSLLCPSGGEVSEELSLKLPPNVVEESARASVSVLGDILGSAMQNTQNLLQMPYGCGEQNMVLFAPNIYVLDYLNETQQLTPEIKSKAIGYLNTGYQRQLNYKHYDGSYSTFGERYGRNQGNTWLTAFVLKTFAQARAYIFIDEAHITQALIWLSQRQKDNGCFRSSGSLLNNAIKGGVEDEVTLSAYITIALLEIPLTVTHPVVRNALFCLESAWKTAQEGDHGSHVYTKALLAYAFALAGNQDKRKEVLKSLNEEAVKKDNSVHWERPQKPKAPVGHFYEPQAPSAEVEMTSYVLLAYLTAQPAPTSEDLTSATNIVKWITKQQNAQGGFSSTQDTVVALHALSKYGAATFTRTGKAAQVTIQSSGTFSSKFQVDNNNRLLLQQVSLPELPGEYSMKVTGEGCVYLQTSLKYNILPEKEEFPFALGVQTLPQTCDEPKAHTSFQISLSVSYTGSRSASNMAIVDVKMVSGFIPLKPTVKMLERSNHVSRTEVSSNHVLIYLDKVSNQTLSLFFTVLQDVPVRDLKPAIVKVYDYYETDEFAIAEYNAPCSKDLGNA
# Description: (§1) TGF- ? isoforms bind to α2M* with different affinities: TGF ? β2>TGF ? β1 ( active sites of TGF ? β1 and TGF- ? 2 responsible for high-affinity binding to ? 2M* are disti from the low-affinity ? 2M* binding site in TGF- ? 3 (19). To determine if fatty acids differentially affect the binding of TGF- ? isoforms to ? 2M*, the effects of various concentrations of arachidonic acid and myristic acid on complex formation of ^125I-labeled TGF ? β isoforms and ? 2M were determined*. […] It inhibited 30% of the complex form . α2M* and TGF ? β2 and TGF ? β3 at 100 and >250 μM, respectively. Arachidon polyunsaturated fatty acid, was a stronger inhibitor of complex formation of ? 2M* and TGF-.β2/TGF ? β3. It inhibited 50% of the complex formation of ? 2M* and ^125I-TGF- ? 2 at 50 μM (FIG. 3A). The observation that myristic acid and arachidonic acid inhibited complex formation of ^125I-TGF- ? […] 2M* complexes in the reaction mixtures were then analyzed by 7.5% SDS-PAGE and autoradiography.
# (§2) Complex formation of ^125I-TGF-β and ? […] After 30 min at room temperature, the complex formation of ^125I-TGF- ? and. α2M* was determined by 5% non-denaturing polyacrylamide gel electrophoresis (PAGE) or by 7.5% SDS-PAGE following cross-linking by 0.6 mM DSS. After electrophoresis, the gel was stained with Coomassie blue and analyzed by autoradiography. […] 2M* was quantified using a PhosphoImager (Fuji).
# TGF-β3-α2M* complex = target: T3, TGF-β3-α2M* complex (Homo sapiens, UniProt P01023); assay: Inhibition of 125I-TGF-β3 and α2M* complex formation (5% non-denaturing PAGE); details: 30% inhibition
# T3 construct: was purified from pooled citrate-treate human plasma; from tissue; host or cells: pooled citrate-treated human plasma
# T3 sequence (P01023 24-1474): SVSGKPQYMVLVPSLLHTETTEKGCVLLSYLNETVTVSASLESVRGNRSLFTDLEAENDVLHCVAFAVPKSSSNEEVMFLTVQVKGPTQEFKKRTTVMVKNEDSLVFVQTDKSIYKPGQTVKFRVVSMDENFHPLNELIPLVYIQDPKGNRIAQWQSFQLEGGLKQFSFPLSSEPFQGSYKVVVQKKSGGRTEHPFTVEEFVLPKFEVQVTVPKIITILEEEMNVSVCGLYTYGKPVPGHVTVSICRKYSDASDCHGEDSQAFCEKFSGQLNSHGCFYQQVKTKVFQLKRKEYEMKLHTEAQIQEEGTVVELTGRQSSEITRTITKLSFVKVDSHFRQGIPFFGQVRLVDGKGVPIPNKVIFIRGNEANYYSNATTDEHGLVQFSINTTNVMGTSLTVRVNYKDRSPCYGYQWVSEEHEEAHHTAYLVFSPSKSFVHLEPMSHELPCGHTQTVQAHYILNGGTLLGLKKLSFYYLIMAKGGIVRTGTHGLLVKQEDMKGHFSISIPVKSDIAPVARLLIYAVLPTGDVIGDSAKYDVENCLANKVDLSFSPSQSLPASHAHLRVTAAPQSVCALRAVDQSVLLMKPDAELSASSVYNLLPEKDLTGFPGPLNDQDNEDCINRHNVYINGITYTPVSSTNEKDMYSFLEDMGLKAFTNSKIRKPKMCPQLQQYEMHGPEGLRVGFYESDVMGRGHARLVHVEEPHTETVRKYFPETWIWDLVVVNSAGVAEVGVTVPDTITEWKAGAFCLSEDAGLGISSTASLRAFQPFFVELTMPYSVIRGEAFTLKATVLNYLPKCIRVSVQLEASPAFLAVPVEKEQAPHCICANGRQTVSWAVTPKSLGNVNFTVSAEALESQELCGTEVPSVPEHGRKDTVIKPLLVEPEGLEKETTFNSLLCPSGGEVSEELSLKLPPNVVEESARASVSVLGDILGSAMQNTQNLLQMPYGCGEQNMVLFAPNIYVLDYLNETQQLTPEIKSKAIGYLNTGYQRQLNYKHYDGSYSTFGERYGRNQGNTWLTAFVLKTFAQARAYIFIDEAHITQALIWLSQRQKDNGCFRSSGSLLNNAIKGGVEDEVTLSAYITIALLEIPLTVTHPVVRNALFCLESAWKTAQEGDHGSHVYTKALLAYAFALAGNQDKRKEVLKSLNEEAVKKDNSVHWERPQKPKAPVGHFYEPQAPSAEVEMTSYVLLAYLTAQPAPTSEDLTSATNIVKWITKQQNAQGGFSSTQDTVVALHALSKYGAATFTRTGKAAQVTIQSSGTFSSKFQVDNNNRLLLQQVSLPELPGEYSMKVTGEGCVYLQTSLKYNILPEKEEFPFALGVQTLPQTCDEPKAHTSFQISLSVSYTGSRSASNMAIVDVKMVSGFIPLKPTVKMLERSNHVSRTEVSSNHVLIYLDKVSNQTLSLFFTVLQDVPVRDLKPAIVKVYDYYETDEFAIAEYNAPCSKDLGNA
# Description: as §1, §2
smiles,measurement,setting,value
CCCCCCCCCCCCCC(=O)O [myristic acid],IC50,TGF-β1-α2M* complex,9.1 µM
same,concentration that inhibited 30% of the complex formation of α2M* and TGF-β2,TGF-β2-α2M* complex,100 µM
same,concentration that inhibited 30% of the complex formation of α2M* and TGF-β3,TGF-β3-α2M* complex,> 250 µM
